Source: article PMC6148290, “Endogenous metabolites of vitamin E limit inflammation by targeting 5-lipoxygenase” (Nature Communications, 2018)

Test system: 15-LO
Experiment: 15-LO product formation in A23187/AA-activated PMNL
Assay type: cell-based, human
Conditions: at 3 µM; mean ± s.e.m., n = 3; n.i. no inhibition
Experimental: (§1) Cells were washed and medium was exchanged. Freshly isolated PMNL (1 × 10^7) and stably transfected HEK-293 (1 × 10^6) cells were suspended in PBS pH 7.4 containing 1 mg/ml glucose and 1 mM CaCl2. […] A23187- and A23187/AA-treated PMNL and A23187/AA-treated HEK-293 (5-LO_wt), HEK-293 (5-LO_3W) and HEK-293 (5-LO_Arg101Asp) cells produced 135 ± 21, 636 ± 112, 300 ± 59, 133 ± 29, 55 ± 9 ng 5-LO products, respectively. PMNL synthesized 29 ± 6 ng 12-HETE and 97 ± 23 ng 15-HETE when challenged with A23187/AA. 5-LO products from monocytes were analyzed by UPLC-MS/MS.

SMILES | 15-LO product formation/PMNL, residual activity
Cc1c(O)cc2c(c1C)O[C@](C)(CCC[C@H](C)CCC[C@H](C)CCCC(C)C)CC2 [1c] | n.i.
Cc1cc(O)cc2c1O[C@](C)(CCC[C@H](C)CCC[C@H](C)CCCC(C)CO)CC2 (some centres unmarked) [2d] | 142.8 ± 13.9 % of control
CC(C)=CCC/C(C)=C/CC/C(C)=C/CC[C@]1(C)CCc2cc(O)cc(C)c2O1 [1h] | n.i.

Test system: not listed separately
Experiment: DPPH radical scavenging
Conditions: 50 µM; control
Experimental: Compounds were incubated with 2,2-diphenyl-1-picrylhydrazyl (DPPH, Sigma-Aldrich; […]) in ethanol for 30 min. Absorbance was measured at 520 nm using a Multiskan Spectrum Microplate Reader (Thermo Fisher Scientific)[35]. Ascorbic acid (Sigma-Aldrich; 50 µM), used as control, scavenged DPPH radicals by 82.4 ± 1.9%.

SMILES | DPPH radicals scavenged [%]
O=C1O[C@H]([C@@H](O)CO)C(O)=C1O [Ascorbic acid, reference compound] | 82.4 ± 1.9

Target: T1, 12-LO (Homo sapiens, UniProt P18054)
T1 construct: 12-HETE (12-LO product from platelets in PMNL preparations); endogenous in cells; host or cells: platelets contaminating human PMNL preparations
T1 sequence (P18054 1-663): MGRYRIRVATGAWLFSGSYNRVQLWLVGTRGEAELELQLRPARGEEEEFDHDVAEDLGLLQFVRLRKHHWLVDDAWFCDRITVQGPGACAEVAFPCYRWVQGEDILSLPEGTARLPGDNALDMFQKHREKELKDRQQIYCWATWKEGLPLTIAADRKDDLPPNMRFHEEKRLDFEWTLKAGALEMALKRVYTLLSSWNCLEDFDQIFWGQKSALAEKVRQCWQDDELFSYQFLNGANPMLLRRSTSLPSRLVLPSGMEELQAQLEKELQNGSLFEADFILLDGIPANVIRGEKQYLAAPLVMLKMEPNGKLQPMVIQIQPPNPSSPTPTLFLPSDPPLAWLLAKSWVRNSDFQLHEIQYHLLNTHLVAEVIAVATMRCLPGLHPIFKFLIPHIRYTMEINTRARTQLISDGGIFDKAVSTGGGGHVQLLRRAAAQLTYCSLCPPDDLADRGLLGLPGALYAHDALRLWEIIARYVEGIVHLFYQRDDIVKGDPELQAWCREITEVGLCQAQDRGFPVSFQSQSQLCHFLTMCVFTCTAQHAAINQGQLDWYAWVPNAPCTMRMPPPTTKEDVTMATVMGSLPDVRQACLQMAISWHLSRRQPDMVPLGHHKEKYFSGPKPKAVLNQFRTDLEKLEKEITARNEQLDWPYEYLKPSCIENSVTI
Experiment: 12-LO product formation in A23187/AA-activated PMNL
Assay type: cell-based
Conditions: at 3 µM; mean ± s.e.m., n = 3; n.i. no inhibition
Experimental: as §1

SMILES | 12-LO product formation/PMNL, residual activity
Cc1c(O)cc2c(c1C)O[C@](C)(CCC[C@H](C)CCC[C@H](C)CCCC(C)C)CC2 [1c] | n.i.
Cc1cc(O)cc2c1O[C@](C)(CCC[C@H](C)CCC[C@H](C)CCCC(C)CO)CC2 (some centres unmarked) [2d] | 84.8 ± 7.8 % of control
CC(C)=CCC/C(C)=C/CC/C(C)=C/CC[C@]1(C)CCc2cc(O)cc(C)c2O1 [1h] | 87.6 ± 8.5 % of control

Target: T2, human recombinant LTC4 synthase (LTC4S) (Homo sapiens, UniProt Q16873)
T2 construct: expressed in transfected cells; host or cells: HEK-293 cells stably expressing LTC4S (microsomal membranes)
T2 sequence (Q16873 1-150): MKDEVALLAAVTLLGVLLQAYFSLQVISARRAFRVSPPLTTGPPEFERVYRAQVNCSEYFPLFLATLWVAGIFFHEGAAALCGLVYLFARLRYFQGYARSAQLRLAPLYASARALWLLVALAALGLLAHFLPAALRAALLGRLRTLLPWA
Experiment: LTC4 synthase activity
Assay type: biochemical
Conditions: 10 µM; reference inhibitor
Experimental: To investigate the effect of LCMs on LTC4S activity, we used microsomal membranes from HEK-293 cells stably expressing LTC4S[70]. […] The conversion of LTA4 to LTC4 methyl esters was initiated by addition of LTA4 methyl ester (Cayman Chemicals; 1 µM). After 10 min at 4 °C, the reaction was terminated by ice-cold methanol (one volume), and LTC-d5 methyl ester (5 ng; Cayman Chemicals) was added as internal standard. LTC4 was extracted and analyzed by UPLC-MS/MS as described for lipid mediators. Vehicle (DMSO)-treated microsomal membranes produced 7.1 ± 0.5 nmol LTC4.

SMILES | suppression of LTC4 formation [%]
CC(C)c1ccc2c(c1)c(SC(C)(C)C)c(CC(C)(C)C(=O)O)n2Cc1ccc(Cl)cc1 [MK-886, reference compound] | 95.6 ± 0.9

Target: T3, 5-LO (Homo sapiens, UniProt P09917)
T3 sequence (P09917 1-674): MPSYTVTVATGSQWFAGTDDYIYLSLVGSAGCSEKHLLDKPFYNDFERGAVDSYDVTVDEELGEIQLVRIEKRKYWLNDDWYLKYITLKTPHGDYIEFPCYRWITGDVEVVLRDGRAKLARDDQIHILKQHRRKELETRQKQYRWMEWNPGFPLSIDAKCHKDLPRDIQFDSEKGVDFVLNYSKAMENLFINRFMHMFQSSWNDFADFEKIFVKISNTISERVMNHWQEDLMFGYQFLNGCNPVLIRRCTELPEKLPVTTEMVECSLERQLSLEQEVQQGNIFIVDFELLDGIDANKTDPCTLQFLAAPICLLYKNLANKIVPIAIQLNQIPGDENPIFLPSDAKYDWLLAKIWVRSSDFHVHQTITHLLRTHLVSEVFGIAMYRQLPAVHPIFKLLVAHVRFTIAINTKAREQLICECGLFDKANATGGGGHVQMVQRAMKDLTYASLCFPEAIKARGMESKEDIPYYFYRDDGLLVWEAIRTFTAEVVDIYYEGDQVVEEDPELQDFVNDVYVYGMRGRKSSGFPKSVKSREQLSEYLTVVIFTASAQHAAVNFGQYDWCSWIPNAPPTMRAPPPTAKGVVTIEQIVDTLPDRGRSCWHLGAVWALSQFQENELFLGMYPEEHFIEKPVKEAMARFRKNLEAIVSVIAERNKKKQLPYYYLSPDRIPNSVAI
Experiment: Activity of purified human recombinant 5-LO (cell-free)
Assay type: biochemical
Parameters: made in house; host or cells: E. coli Bl21 (DE3)
Conditions: cell-free; mean ± s.e.m., n = 3; read-out: IC50, human recombinant 5-LO
Experimental: E. coli Bl21 (DE3) cells were transformed with pT3–5LO plasmid to express human recombinant 5-LO, which was purified by affinity chromatography on an ATP-agarose column. In brief, E. coli was lysed in 50 mM triethanolamine/HCl pH 8.0 plus EDTA (5 mM), soybean trypsin inhibitor (60 µg/ml), phenylmethanesulphonyl fluoride (1 mM), dithiothreitol (1 mM), and lysozyme (1 mg/ml). After sonication (3 × 15 s), the homogenate was centrifuged at 10,000 × g for 15 min and the supernatant again at 40,000 × g for 70 min at 4 °C. The supernatant was applied to an ATP-agarose column (Sigma-Aldrich), and the column was washed with (i) PBS pH 7.4, 1 mM EDTA, (ii) 50 mM phosphate buffer pH 7.4, 0.5 M NaCl, 1 mM EDTA, and (iii) 50 mM phosphate buffer pH 7.4, 1 mM EDTA. 5-LO was eluted with 50 mM phosphate buffer pH 7.4, 1 mM EDTA, 20 mM ATP.
Purified 5-LO (0.5 µg) in PBS pH 7.4 containing EDTA (1 mM) and ATP (1 mM) was pre-incubated with LCMs for 10 min at 4 °C, pre-warmed for 30 s at 37 °C and 5-LO product formation was started by addition of AA (Sigma-Aldrich; 20 µM if not indicated otherwise) plus CaCl2 (2 mM). […] AA was added after incubation for 5 min on ice.

SMILES | IC50 [nM]
Cc1c(O)cc2c(c1C)O[C@](C)(CCC[C@H](C)CCC[C@H](C)CCCC(C)C)CC2 [1c] | 910 ± 150
Cc1cc(O)cc2c1O[C@](C)(CCC[C@H](C)CCC[C@H](C)CCCC(C)CO)CC2 (some centres unmarked) [2d] | 120 ± 40
CC(C)=CCC/C(C)=C/CC/C(C)=C/CC[C@]1(C)CCc2cc(O)cc(C)c2O1 [1h] | 170 ± 100

Test system: peripheral blood mononuclear cells
Experiment: Cell viability of PBMC (MTT assay)
Assay type: cell-based, human
Conditions: at 1 and 10 µM (one entry for both); 24 h; n.i. no inhibition
Experimental: The formazan product was solubilized with SDS (10% in 20 mM HCl), and absorbance was measured at 570 nm using a Multiskan Spectrum microplate reader (Thermo Fisher Scientific).

SMILES | Cell viability/peripheral blood mononuclear cells, residual viability
Cc1c(O)cc2c(c1C)O[C@](C)(CCC[C@H](C)CCC[C@H](C)CCCC(C)C)CC2 [1c] | n.i.
Cc1cc(O)cc2c1O[C@](C)(CCC[C@H](C)CCC[C@H](C)CCCC(C)CO)CC2 (some centres unmarked) [2d] | n.i.
CC(C)=CCC/C(C)=C/CC/C(C)=C/CC[C@]1(C)CCc2cc(O)cc(C)c2O1 [1h] | n.i.

Target: T3, 5-LO
Experiment: 5-LO product formation in activated PMNL
Assay type: cell-based
Parameters: Freshly isolated PMNL (1 × 10^7); endogenous in cells; host or cells: human PMNL freshly isolated from leukocyte concentrates
Conditions: cell-based; mean ± s.e.m., n = 3; read-out: IC50, activated PMNL (5-LO)
Description: Human PMNL, monocytes, PBMC, and platelets were freshly isolated from leukocyte concentrates. The protocols for experiments with human blood and blood cells were approved by the ethical commission of the Friedrich-Schiller-University Jena. […] PMNL were recovered from the pellet after hypotonic lysis of erythrocytes. Platelets were obtained from the supernatant and washed with PBS pH 5.9/0.9% NaCl (1:1). […]

SMILES | IC50 [nM]
Cc1c(O)cc2c(c1C)O[C@](C)(CCC[C@H](C)CCC[C@H](C)CCCC(C)C)CC2 [1c] | 502000 ± 199000
Cc1cc(O)cc2c1O[C@](C)(CCC[C@H](C)CCC[C@H](C)CCCC(C)CO)CC2 (some centres unmarked) [2d] | 540 ± 20
CC(C)=CCC/C(C)=C/CC/C(C)=C/CC[C@]1(C)CCc2cc(O)cc(C)c2O1 [1h] | 60000 ± 15000
